Patent US9481654B2, “Compositions and methods for inhibition of the JAK pathway” (Rigel Pharmaceuticals, Inc., priority 2006, dated 2016)

Assays:
[1] = test system: IL-4 stimulated CD23 upregulation in human Ramos B cells (JAK-1/JAK-3, Stat-6); assay: Assay for Ramos B-Cell Line Stimulated with IL-4 (CD23 upregulation, FACS); format: cell-based; settings: Table III Example 3
In short: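 Flow cytometry of CD23 staining after 20-24 h IL-4 stimulation (50 units/mL final) of human Ramos B cells in RPMI with 5% serum. Cells, 5×10^4 per point, received compound or DMSO vehicle for 1 h at 37° C prior to stimulation.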

[2] = test system: IFNγ induced ICAM-1 (CD54) up-regulation in U937 human monocytic cells (JAK/Stat pathway); assay: U937 IFNγ ICAM1 FACS Assay; format: cell-based; settings: Table III Example 6, 10 ng/mL IFNγ, 18-24 hours
In short: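 Flow cytometry gave ICAM-1 (CD54) up-regulation as ICAM-APC geometric mean within the live-cell gate, alongside % viable cells. Human monocytic U937 cells received 3-fold serial compound dilutions for 30 min at 37 °C, followed by IFNγ stimulation lasting 18–24 h. Dose curves yielded EC50s.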

IC50 ([1]; Homo sapiens, Ramos) | IC50 ([2]; Homo sapiens, U-937) | Structure (SMILES) | IC50 [1] | IC50 [2]
– | – | NS(=O)(=O)c1cccc(Nc2ncc(F)c(Nc3ccc(CNS(=O)(=O)C4CCCCC4)cc3)n2)c1 [Compound I-72, N2-(3-aminosulfonyl)phenyl-N4-(4-cyclohexylsulfonylaminomethyl)phenyl-5-fluoro-2,4-pyrimidinediamine] | 0.0569 µM | 0.204 µM
– | – | Cc1ccc(Nc2ncc(C)c(Nc3ccc(CNS(=O)(=O)C4CC4)cc3)n2)cc1S(=O)(=O)NCC1CC1 [Compound I-192, N2-(3-cyclopropylmethylaminosulfonyl-4-methyl)phenyl-N4-(4-cyclopropylsulfonylaminomethyl)phenyl-5-methyl-2,4-pyrimidinediamine] | 0.0547 µM | 0.26 µM
– | – | CCNS(=O)(=O)c1ccc(Nc2ncc(C)c(Nc3ccc(CNS(=O)(=O)C4CC4)cc3)n2)cc1 [Compound I-175, N4-(4-cyclopropylsulfonylaminomethyl)phenyl-N2-(4-ethylaminosulfonyl)phenyl-5-methyl-2,4-pyrimidinediamine] | 0.0461 µM | 0.0723 µM
– | – | Cc1cnc(Nc2cccc(S(N)(=O)=O)c2)nc1Nc1ccc(CCNS(=O)(=O)C2CC2)cc1 [Compound I-54, N2-(3-aminosulfonyl)phenyl-N4-[4-(2-cyclopropylsulfonylamino)ethyl]phenyl-5-methyl-2,4-pyrimidinediamine] | 0.0943 µM | 0.389 µM
– | – | Cc1cnc(Nc2cccc(S(=O)(=O)NCC3CC3)c2)nc1Nc1ccc(CNS(=O)(=O)C2CC2)cc1 [Compound I-180, N2-(3-cyclopropylmethylaminosulfonyl)phenyl-N4-(4-cyclopropylsulfonylaminomethyl)phenyl-5-methyl-2,4-pyrimidinediamine] | 0.0257 µM | 0.0622 µM
– | – | NS(=O)(=O)c1cccc(Nc2ncc(F)c(Nc3ccc(CNS(=O)(=O)C4CCCC4)cc3)n2)c1 [Compound I-69, N2-(3-aminosulfonyl)phenyl-N4-(4-cyclopentylsulfonylaminomethyl)phenyl-5-fluoro-2,4-pyrimidinediamine] | 0.0515 µM | 0.176 µM
– | – | CCNS(=O)(=O)c1cc(Nc2ncc(C)c(Nc3ccc(CNS(=O)(=O)C4CC4)cc3)n2)ccc1C [Compound I-186, N4-(4-cyclopropylsulfonylaminomethyl)phenyl-N2-(3-ethylaminosulfonyl-4-methyl)phenyl-5-methyl-2,4-pyrimidinediamine] | 0.0195 µM | 0.073 µM
– | – | Cc1cnc(Nc2cccc(S(N)(=O)=O)c2)nc1Nc1ccc(CNS(=O)(=O)C(C)C)cc1 [Compound I-118, N2-(3-aminosulfonyl)phenyl-N4-(4-isopropylsulfonylaminomethyl)phenyl-5-methyl-2,4-pyrimidinediamine] | 0.0398 µM | 0.218 µM
– | – | CNS(=O)(=O)c1cccc(Nc2ncc(C)c(Nc3cccc(CNS(=O)(=O)C4CC4)c3)n2)c1 [Compound I-162, N4-(3-cyclopropylsulfonylaminomethyl)phenyl-5-methyl-N2-(3-methylaminosulfonyl)phenyl-2,4-pyrimidinediamine] | 0.0579 µM | 0.155 µM
– | – | Cc1ccc(Nc2ncc(Cl)c(Nc3ccc(CNS(=O)(=O)C4CC4)cc3)n2)cc1S(N)(=O)=O [Compound I-113, N2-(3-aminosulfonyl-4-methyl)phenyl-5-chloro-N4-(4-cyclopropylsulfonylaminomethyl)phenyl-2,4-pyrimidinediamine] | 0.0186 µM | 0.0471 µM
– | – | NS(=O)(=O)c1ccc(Nc2ncc(F)c(Nc3ccc(CNS(=O)(=O)C4CCCC4)cc3)n2)cc1 [Compound I-68, N2-(4-aminosulfonyl)phenyl-N4-(4-cyclopentylsulfonylaminomethyl)phenyl-5-fluoro-2,4-pyrimidinediamine] | 0.094 µM | 0.289 µM
– | – | CCCNS(=O)(=O)c1cccc(Nc2ncc(C)c(Nc3ccc(CNS(=O)(=O)C4CC4)cc3)n2)c1 [Compound I-178, N4-(4-cyclopropylsulfonylaminomethyl)phenyl-5-methyl-N2-(3-propylaminosulfonyl)phenyl-2,4-pyrimidinediamine] | 0.023 µM | 0.0577 µM
– | – | CCS(=O)(=O)N[C@H](C)c1ccc(Nc2nc(Nc3cccc(S(N)(=O)=O)c3)ncc2F)cc1 [Compound I-30, N2-(3-aminosulfonyl)phenyl-N4-[4-(1R-ethylsulfonylamino)ethyl]phenyl-5-fluoro-2,4-pyrimidinediamine] | 0.0743 µM | 1.16 µM
– | – | Cc1ccc(Nc2ncc(C)c(Nc3ccc(CNS(=O)(=O)C4CC4)cc3)n2)cc1S(=O)(=O)Nc1ccccc1 [Compound I-202, N4-(4-cyclopropylsulfonylaminomethyl)phenyl-5-methyl-N2-(4-methyl-3-phenylaminosulfonyl)phenyl-2,4-pyrimidinediamine] | 0.0865 µM | 0.482 µM
0.141 µM | 0.908 µM | C#CCNS(=O)(=O)Cc1ccc(Nc2nc(Nc3cccc(S(N)(=O)=O)c3)ncc2F)cc1 [Compound I-4, N2-(3-Aminosulfonylphenyl)-5-fluoro-N4-[4-(prop-2-ynylaminosulfonylmethyl)phenyl]-2,4-pyrimidinediamine] | – | –
– | – | CCS(=O)(=O)N[C@@H](C)c1ccc(Nc2nc(Nc3cccc(S(N)(=O)=O)c3)ncc2F)cc1 [Compound I-27, N2-(3-aminosulfonyl)phenyl-N4-[4-(1S-ethylsulfonylamino)ethyl]phenyl-5-fluoro-2,4-pyrimidinediamine] | 0.118 µM | 1.24 µM
– | – | Cc1cnc(Nc2cccc(S(N)(=O)=O)c2)nc1Nc1cccc(CN(C)S(=O)(=O)C2CC2)c1 [Compound I-120, N2-(3-aminosulfonyl)phenyl-N4-[3-(N-cyclopropylsulfonyl-N-methyl)aminomethyl]phenyl-5-methyl-2,4-pyrimidinediamine] | 0.0671 µM | 0.0984 µM
– | – | Cc1cnc(Nc2cccc(S(N)(=O)=O)c2)nc1Nc1ccc2c(c1)CN(S(=O)(=O)C1CC1)C2 [II-8, N2-(3-Aminosulfonyl-phenyl)-N4-[(2-cyclopropylsulfonyl)-isoindolin-5-yl]-5-methyl-2,4-pyrimidinediamine] | 0.0979 µM | 0.775 µM
– | – | Cc1cnc(Nc2cccc(S(N)(=O)=O)c2)nc1Nc1ccc(CN(C)S(=O)(=O)C2CC2)cc1 [Compound I-121, N2-(3-aminosulfonyl)phenyl-N4-[4-(N-cyclopropylsulfonyl-N-methyl)aminomethyl]phenyl-5-methyl-2,4-pyrimidinediamine] | 0.0736 µM | 0.231 µM
– | – | Cc1ccc(Nc2ncc(F)c(Nc3ccc(CNS(=O)(=O)c4cccs4)cc3)n2)cc1S(N)(=O)=O [Compound I-37, N2-(3-aminosulfonyl-4-methyl)phenyl-5-fluoro-N4-[4-(thiophen-2-yl)sulfonylaminomethyl]phenyl-2,4-pyrimidinediamine] | 0.0462 µM | 0.375 µM
– | – | Cc1cnc(Nc2cccc(S(N)(=O)=O)c2)nc1Nc1ccc(CNS(=O)(=O)CC(F)(F)F)cc1 [Compound I-97, N2-(3-aminosulfonyl)phenyl-5-methyl-N4-(4-trifluoroethylsulfonylaminomethyl)phenyl-2,4-pyrimidinediamine] | 0.0347 µM | 0.257 µM
– | – | NS(=O)(=O)c1cccc(Nc2ncc(Cl)c(Nc3ccc(CNS(=O)(=O)C4CC4)cc3)n2)c1 [Compound I-114, N2-(3-aminosulfonyl)phenyl-5-chloro-N4-(4-cyclopropylsulfonylaminomethyl)phenyl-2,4-pyrimidinediamine] | 0.0206 µM | 0.0517 µM
– | – | CCS(=O)(=O)NCCc1ccc(Nc2nc(Nc3ccc(C)c(S(N)(=O)=O)c3)ncc2F)cc1 [Compound I-16, N2-(3-aminosulfonyl-4-methyl)phenyl-N4-[4-(2-ethylsulfonylamino)ethyl]phenyl-5-fluoro-2,4-pyrimidinediamine] | 0.148 µM | 2.28 µM
– | – | CCNS(=O)(=O)c1cccc(Nc2ncc(C)c(Nc3ccc(CNS(=O)(=O)C4CC4)cc3)n2)c1 [Compound I-176, N4-(4-cyclopropylsulfonylaminomethyl)phenyl-N2-(3-ethylaminosulfonyl)phenyl-5-methyl-2,4-pyrimidinediamine] | 0.00798 µM | 0.0484 µM
